From ChEMBL document CHEMBL1201862, “PubChem BioAssay data set” (2004)
Calls of active or inactive are those of the source.

Assays:
[1] = Luminescence Cell-Based Dose Retest to Confirm Inhibitors of Cancer Stem Cells. [Related pubchem assays (depositor defined):AID2717, AID2721]; format: functional; conditions: Homo sapiens
[2] = biological target: T1, High affinity choline transporter 1 (Homo sapiens, UniProt Q9GZV3); experiment: CHT inhibitors, dose response, cell-based, 5-point CRC, membrane potential dye (AID 504840); format: functional
T1 sequence (Q9GZV3 whole entry): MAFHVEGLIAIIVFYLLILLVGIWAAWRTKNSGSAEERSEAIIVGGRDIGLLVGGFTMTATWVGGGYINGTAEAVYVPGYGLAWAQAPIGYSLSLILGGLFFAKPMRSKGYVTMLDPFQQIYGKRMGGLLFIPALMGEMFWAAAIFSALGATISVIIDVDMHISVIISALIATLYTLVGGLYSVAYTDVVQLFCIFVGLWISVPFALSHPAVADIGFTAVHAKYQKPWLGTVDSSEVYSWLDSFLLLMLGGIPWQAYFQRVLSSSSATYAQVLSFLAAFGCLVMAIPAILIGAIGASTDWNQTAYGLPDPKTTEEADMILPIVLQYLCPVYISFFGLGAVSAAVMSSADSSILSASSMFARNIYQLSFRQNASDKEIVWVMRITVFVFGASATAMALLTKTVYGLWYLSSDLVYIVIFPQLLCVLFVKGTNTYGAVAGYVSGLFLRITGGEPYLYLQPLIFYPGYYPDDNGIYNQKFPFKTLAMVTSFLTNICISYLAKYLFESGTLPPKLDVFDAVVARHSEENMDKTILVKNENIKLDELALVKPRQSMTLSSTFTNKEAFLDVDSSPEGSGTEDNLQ

[3] = tested on: Vero; experiment: Vero cell cytotoxicity, cytotoxicity control for flavivirus capping enzyme inhibitors (AID 588742); format: functional; conditions: Chlorocebus sabaeus
[4] = biological target: Large T antigen (Simian virus 40, UniProt P03070); format: functional, Betapolyomavirus macacae;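 also: Confirmatory-stage PubChem screen for compounds that inhibit SV40 T antigen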
[5] = biological target: Genome polyprotein (dengue virus type 2, UniProt P29990); experiment: Dengue-2 NS5 methyltransferase inhibitors, primary screen, biochemical, confirmation dose response (AID 588689); format: functional
[6] = biological target: G-protein coupled receptor 55 (Homo sapiens, UniProt Q9Y2T6); experiment: GPR55 antagonists blocking LPI-driven arrestin recruitment, primary screen, imaging, U2OS, beta-arrestin-GFP, LPI agonist (AID 2013); format: functional;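 also: antagonist potency measured as reduced agonist-driven arrestin aggregation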
[7] = biological target: Induced myeloid leukemia cell differentiation protein Mcl-1 (Homo sapiens, UniProt Q07820); format: functional
[8] = biological target: FAD-linked sulfhydryl oxidase ALR (Homo sapiens, UniProt P55789); experiment: inhibitors of human ALR sulfhydryl oxidase, dose response, biochemical, H2O2 detection, luminescence, cherry-pick (AID 493248)
[9] = biological target: Intestinal-type alkaline phosphatase (Homo sapiens, UniProt P09923); experiment: inhibition of human intestinal alkaline phosphatase – biochemical, dose response (AID 488876); format: functional
[10] = biological target: Intestinal-type alkaline phosphatase (Mus musculus, UniProt P24822); experiment: PubChem AID 488785; format: functional
[11] = biological target: T2, Alkaline phosphatase, tissue-nonspecific isozyme (Homo sapiens, UniProt P05186); experiment: TNAP enzyme inhibition by screening hits, dose response, selectivity assay for mouse IAP inhibitor project, biochemical, human TNAP, uHTS hits (AID 488906); format: functional
T2 sequence (P05186 whole entry): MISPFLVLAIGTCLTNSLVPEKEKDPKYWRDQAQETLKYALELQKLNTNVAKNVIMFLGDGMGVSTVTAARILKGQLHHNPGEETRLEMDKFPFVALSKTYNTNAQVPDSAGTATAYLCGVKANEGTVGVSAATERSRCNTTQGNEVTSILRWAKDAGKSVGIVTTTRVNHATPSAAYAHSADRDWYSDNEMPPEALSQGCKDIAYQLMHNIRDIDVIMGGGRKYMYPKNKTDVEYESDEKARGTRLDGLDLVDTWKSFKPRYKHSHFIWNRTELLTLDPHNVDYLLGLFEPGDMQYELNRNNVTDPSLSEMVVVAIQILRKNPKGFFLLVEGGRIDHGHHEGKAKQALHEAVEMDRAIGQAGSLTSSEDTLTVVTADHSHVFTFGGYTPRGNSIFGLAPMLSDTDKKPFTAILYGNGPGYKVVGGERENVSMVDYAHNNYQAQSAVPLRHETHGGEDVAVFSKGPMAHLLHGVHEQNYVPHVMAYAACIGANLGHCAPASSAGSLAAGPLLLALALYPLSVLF

[12] = biological target: T3, Type-1 angiotensin II receptor (Homo sapiens, UniProt P30556); experiment: AT1 receptor agonists, dose response, selectivity assay for APJ receptor agonist project, cell-based, uHTS hits (AID 488865); format: functional;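 also: beta-arrestin recruitment to AT1 measured by enzyme fragment complementation luminescence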
T3 sequence (P30556 whole entry): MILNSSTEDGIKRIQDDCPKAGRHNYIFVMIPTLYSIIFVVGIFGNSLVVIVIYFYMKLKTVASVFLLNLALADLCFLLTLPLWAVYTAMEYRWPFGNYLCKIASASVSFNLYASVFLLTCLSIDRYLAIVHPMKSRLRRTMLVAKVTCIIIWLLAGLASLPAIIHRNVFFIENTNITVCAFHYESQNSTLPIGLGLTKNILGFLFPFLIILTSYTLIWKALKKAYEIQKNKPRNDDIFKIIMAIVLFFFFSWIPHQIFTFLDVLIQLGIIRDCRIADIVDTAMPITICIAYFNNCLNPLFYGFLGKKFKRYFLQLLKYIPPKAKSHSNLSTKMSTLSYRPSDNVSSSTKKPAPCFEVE

[13] = biological target: Cytochrome P450 2D6 (Homo sapiens, UniProt P10635);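 also: CYP2D6 member of a cytochrome P450 panel assay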
[14] = biological target: T4, Ubiquitin-conjugating enzyme E2 N (Homo sapiens, UniProt P61088); format: functional
T4 sequence (P61088 whole entry): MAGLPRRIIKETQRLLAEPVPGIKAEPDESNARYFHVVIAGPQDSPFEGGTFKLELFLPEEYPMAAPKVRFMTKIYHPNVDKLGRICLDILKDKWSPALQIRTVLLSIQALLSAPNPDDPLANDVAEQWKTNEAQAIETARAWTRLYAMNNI

[15] = biological target: T4, Ubiquitin-conjugating enzyme E2 N; format: functional; remark: listed apart in the source
[16] = biological target: Bcl-2-related protein A1 (Mus musculus, UniProt Q07440); format: functional;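 also: confirmatory dose–response counterscreen on Bfl-1, used to check hits from a UBC13 polyubiquitin inhibitor campaign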
[17] = HEp-2 cell cytotoxicity, dose response, cytotoxicity control for RSV inhibitor project, HTS (AID 2410); format: functional; conditions: human respiratory syncytial virus
[18] = biological target: T5, Endoribonuclease toxin MazF (Escherichia coli K-12, UniProt P0AE70); experiment: fluorescent RNA oligo signal without MazF, dose response, counter-screen for MazEF activator project, biochemical, fluorescence, single-stranded RNase substrate (AID 588502); format: functional
T5 sequence (P0AE70 whole entry): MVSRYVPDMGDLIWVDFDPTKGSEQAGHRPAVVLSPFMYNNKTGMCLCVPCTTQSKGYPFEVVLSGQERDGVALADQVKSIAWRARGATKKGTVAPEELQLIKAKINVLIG

[19] = biological target: Troponin, cardiac muscle (Homo sapiens, UniProt P19429+P45379+P63316); experiment: Fluorescence-based biochemical high throughput dose response assay for activators of the calcium sensitivity of cardiac Regulated Thin Filaments (RTF). [Related pubchem assays (depositor defined):AID493008, AID493018, AID504382, AID504383]; format: protein-complex assay
[20] = biological target: NS3 (Hepatitis C virus, UniProt A3EZJ3); experiment: PubChem AID 2173; design: species or system Hepacivirus hominis
[21] = biological target: T5, Endoribonuclease toxin MazF; experiment: MazF toxin RNase activators, dose response, biochemical, fluorescence, single-stranded RNA substrate, uHTS hits (AID 588481); format: functional
[22] = biological target: T6, Zinc finger protein mex-5 (Caenorhabditis elegans, UniProt Q9XUB2); experiment: MEX-5/TCR-2 RNA interaction inhibitors, dose response, biochemical, C. elegans, fluorescence polarization (AID 1960)
T6 sequence (Q9XUB2 whole entry): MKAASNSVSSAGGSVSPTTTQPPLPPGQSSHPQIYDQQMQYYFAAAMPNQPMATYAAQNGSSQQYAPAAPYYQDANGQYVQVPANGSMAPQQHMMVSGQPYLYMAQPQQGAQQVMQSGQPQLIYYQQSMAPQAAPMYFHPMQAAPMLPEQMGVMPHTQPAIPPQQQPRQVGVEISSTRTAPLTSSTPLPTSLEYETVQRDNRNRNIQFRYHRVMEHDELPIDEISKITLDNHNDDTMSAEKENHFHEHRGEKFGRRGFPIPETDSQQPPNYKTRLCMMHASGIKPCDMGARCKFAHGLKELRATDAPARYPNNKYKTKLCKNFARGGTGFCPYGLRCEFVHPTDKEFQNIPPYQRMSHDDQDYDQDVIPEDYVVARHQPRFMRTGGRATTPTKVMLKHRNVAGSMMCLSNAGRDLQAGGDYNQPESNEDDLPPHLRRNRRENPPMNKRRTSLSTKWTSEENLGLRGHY

[23] = biological target: T7, RNA-binding protein pos-1 (Caenorhabditis elegans, UniProt G5EF15); experiment: inhibitors of POS-1/mex-3 RNA binding, dose response, biochemical, fluorescence polarization (AID 1964);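 also: purified POS-1 fused to maltose binding protein made in E. coli; potency of compounds blocking POS-1 binding to fluorescent RNA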
T7 sequence (G5EF15 whole entry): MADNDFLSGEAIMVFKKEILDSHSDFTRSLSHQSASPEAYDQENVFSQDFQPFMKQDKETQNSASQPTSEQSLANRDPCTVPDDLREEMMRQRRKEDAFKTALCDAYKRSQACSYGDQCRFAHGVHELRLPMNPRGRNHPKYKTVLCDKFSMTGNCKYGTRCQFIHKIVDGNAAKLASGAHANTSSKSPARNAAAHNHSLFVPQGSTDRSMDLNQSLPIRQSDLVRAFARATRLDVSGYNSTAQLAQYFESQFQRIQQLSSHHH

[24] = biological target: Peroxisome proliferator-activated receptor gamma/Nuclear receptor coactivator 2 (Homo sapiens, UniProt P37231); format: functional;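 also: agonist potency for raising coactivator recruitment to the receptor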
[25] = biological target: Peroxisome proliferator-activated receptor gamma/Nuclear receptor coactivator 1 (Homo sapiens, UniProt P37231); format: functional;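 also: agonist potency as compounds enhance coactivator SRC-1 recruitment to PPARgamma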
[26] = biological target: Peroxisome proliferator-activated receptor gamma/Nuclear receptor coactivator 3 (Homo sapiens, UniProt P37231); format: functional;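 also: agonist potency for raising coactivator recruitment to the receptor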
[27] = MC4R antagonists, dose response, counter-screen for LGR2 antagonist project, cell-based, plate reader, cherry pick (AID 743444); format: functional;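 also: transfected HEK 293 cells stimulated with alpha-MSH peptide; potency of inhibitors of the alpha-MSH evoked signal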
[28] = cells; format: functional, cell-based
[29] = HepG2 cell cytotoxicity, dose response, cytotoxicity control, plate reader, cherry-pick, antagonist series (AID 743416); format: functional, cell-based
[30] = LGR2 antagonists, dose response, cell-based, HEK293, CRE-luciferase reporter, cherry pick, set 2 (AID 743343); format: functional;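 also: transfected cells were stimulated with diluted bursicon conditioned medium after compound addition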
[31] = A549 cell cytotoxicity, dose response, cytotoxicity control, plate reader, cherry-pick, antagonist series (AID 743412); format: functional, cell-based
[32] = cells; format: functional, cell-based; remark: listed apart in the source
[33] = tested on: H9c2; experiment: cells; format: functional, cell-based; conditions: Rattus norvegicus, H9c2, Myocardium;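 also: confirmatory concentration-response retest of ultra-high-throughput screening hits for modulation of myocardial damage; cell death induced by hydrogen peroxide oxidative stress; compound pretreatment for 60 min then peroxide exposure for 2 h; potency is for protecting the cells against peroxide damage rather than for killing them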
[34] = biological target: T8, E3 ubiquitin-protein ligase XIAP (Homo sapiens, UniProt P98170); experiment: Counter Screen using XIAP-Bir3 for Chemical Antagonists of Bir1/2 domains of IAP-family anti-apoptotic proteins. [Related pubchem assays (depositor defined):AID1018, AID1449, AID1514, AID1638, AID1749, AID1750, AID488957, AID488963]
[35] = biological target: T8, E3 ubiquitin-protein ligase XIAP; experiment: XIAP antagonists, biochemical, IAP family, fluorescence polarization (AID 1018); format: functional

T8 sequence (P98170 whole entry): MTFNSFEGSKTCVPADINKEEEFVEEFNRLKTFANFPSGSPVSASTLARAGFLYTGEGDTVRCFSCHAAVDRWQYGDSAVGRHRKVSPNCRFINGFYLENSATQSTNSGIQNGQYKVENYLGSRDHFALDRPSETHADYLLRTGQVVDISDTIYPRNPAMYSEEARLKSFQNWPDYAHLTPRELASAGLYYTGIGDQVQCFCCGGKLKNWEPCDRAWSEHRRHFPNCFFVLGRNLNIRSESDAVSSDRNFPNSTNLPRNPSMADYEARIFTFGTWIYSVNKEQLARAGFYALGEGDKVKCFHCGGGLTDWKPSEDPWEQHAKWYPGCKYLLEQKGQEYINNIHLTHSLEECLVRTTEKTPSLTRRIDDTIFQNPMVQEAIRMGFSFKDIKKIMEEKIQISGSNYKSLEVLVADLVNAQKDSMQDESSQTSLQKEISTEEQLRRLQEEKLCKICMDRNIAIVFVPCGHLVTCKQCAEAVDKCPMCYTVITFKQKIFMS
Chain of Large T antigen (P03070 whole entry): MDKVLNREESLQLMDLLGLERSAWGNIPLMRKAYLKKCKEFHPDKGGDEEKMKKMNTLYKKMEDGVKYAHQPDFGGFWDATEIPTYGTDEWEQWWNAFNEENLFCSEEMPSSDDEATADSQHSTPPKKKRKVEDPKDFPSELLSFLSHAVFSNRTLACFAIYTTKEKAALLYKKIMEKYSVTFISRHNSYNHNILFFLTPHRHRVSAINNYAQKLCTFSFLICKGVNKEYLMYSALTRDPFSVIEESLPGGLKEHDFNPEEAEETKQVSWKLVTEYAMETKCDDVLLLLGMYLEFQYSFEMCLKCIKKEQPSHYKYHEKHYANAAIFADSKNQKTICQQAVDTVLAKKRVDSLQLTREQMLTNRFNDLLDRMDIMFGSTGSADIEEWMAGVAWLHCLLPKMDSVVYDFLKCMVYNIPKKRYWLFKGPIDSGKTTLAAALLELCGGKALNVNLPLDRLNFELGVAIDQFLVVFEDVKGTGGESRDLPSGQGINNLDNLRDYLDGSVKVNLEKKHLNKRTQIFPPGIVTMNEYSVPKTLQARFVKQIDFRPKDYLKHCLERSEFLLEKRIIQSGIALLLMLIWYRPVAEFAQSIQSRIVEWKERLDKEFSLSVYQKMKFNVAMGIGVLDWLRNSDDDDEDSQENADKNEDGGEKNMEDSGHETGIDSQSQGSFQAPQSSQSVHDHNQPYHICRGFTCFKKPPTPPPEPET
Chain of Intestinal-type alkaline phosphatase (Homo sapiens, UniProt P09923) (P09923 whole entry): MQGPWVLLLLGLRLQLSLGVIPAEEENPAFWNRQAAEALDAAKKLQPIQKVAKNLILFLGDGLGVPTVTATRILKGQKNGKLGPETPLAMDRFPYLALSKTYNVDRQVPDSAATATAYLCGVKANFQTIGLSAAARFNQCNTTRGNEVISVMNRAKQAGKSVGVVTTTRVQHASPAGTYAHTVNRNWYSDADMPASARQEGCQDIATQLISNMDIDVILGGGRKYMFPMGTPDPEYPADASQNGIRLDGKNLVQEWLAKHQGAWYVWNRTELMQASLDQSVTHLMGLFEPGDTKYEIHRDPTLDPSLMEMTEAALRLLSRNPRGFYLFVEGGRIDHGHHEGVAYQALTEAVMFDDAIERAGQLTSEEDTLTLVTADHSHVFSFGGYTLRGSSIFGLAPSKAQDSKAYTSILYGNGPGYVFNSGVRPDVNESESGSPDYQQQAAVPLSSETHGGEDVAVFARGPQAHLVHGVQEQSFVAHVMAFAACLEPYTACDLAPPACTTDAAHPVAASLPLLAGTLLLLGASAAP
Chain of Intestinal-type alkaline phosphatase (Mus musculus, UniProt P24822) (P24822 whole entry): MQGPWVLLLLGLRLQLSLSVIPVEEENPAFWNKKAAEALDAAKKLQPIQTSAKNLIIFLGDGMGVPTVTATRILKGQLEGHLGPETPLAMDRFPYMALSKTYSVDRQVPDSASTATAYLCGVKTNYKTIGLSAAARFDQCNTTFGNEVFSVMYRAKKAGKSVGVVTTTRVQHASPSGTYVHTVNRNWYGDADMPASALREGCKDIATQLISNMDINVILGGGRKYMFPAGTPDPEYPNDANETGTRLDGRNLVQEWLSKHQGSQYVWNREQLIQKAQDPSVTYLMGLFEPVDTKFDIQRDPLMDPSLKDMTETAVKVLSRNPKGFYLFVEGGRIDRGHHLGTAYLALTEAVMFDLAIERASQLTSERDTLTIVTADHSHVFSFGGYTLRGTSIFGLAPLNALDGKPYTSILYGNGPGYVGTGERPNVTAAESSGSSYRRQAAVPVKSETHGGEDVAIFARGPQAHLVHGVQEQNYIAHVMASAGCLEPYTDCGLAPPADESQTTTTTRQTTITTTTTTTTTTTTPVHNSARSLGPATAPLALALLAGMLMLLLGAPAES
Chain of Induced myeloid leukemia cell differentiation protein Mcl-1 (Q07820 whole entry): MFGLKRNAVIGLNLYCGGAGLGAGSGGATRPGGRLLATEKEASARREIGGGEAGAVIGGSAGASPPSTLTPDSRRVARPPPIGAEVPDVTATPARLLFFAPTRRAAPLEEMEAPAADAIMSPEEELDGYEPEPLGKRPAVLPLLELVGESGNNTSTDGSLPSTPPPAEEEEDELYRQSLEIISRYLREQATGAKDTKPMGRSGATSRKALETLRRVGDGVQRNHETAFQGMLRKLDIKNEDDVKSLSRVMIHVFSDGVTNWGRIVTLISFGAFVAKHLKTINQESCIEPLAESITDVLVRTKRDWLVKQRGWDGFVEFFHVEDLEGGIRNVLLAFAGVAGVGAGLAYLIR
Chain of FAD-linked sulfhydryl oxidase ALR (P55789 whole entry): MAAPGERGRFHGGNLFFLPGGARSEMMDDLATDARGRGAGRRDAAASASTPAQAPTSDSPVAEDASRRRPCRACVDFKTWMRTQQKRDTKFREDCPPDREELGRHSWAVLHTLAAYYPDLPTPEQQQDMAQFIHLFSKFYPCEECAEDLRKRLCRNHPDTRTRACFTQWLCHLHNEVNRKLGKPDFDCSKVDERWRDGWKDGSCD
Chain of G-protein coupled receptor 55 (Q9Y2T6 whole entry): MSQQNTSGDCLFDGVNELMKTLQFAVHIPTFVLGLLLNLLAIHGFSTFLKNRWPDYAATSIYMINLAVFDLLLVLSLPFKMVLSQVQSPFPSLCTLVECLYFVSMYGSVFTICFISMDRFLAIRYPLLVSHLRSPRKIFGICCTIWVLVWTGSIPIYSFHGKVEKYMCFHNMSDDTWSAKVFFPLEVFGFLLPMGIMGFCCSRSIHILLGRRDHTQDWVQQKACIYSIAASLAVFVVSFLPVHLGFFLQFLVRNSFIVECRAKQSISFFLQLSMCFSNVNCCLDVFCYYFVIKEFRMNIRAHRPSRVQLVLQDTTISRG
Chain of NS3 (A3EZJ3 whole entry): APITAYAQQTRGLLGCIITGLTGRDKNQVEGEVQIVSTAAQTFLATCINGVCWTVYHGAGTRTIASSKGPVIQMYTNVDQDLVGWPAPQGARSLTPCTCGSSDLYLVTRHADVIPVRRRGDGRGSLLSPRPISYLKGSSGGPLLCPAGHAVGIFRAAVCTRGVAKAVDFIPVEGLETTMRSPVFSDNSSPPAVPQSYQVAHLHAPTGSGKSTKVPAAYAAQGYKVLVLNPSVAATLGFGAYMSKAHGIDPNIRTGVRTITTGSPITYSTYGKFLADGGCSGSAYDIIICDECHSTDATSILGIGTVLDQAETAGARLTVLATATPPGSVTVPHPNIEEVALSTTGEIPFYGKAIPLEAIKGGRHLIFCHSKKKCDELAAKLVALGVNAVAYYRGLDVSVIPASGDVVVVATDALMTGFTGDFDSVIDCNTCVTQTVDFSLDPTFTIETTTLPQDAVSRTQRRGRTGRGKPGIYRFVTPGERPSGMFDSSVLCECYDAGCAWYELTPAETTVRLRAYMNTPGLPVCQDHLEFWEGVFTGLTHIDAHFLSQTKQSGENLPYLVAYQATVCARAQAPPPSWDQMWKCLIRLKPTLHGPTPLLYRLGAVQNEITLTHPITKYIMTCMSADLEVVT
Chain of Genome polyprotein (P29990 2492-3391 limits assumed): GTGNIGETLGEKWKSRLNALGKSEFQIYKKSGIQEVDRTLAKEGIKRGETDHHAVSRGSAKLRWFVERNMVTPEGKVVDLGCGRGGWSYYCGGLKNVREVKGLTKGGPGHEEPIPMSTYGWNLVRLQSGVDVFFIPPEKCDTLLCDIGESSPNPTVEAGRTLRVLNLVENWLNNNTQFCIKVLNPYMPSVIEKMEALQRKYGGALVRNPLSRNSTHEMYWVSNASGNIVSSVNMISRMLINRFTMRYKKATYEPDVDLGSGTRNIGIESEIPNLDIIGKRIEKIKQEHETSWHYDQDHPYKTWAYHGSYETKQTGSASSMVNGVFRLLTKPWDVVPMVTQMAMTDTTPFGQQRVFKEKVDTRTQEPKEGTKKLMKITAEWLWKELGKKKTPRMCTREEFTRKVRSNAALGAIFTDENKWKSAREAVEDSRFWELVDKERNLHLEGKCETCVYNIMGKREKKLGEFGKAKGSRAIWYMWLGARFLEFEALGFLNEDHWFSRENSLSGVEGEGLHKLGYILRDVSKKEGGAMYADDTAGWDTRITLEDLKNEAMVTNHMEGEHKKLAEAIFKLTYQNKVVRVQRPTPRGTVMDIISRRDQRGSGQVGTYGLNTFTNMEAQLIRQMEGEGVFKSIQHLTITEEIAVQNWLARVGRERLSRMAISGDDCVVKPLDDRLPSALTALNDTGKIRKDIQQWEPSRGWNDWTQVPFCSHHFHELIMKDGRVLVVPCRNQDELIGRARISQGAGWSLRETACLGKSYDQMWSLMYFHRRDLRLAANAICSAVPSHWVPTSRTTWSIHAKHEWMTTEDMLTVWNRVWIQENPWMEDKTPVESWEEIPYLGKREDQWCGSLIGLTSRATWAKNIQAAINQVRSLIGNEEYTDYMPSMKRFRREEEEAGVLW
Chain of Bcl-2-related protein A1 (Q07440 whole entry): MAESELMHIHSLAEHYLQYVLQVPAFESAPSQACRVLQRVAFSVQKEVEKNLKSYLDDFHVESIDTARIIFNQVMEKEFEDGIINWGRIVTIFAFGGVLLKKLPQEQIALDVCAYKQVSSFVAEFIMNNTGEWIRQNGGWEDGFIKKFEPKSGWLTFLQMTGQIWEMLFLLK

Structure (SMILES): Cc1ccc(N2NC(=O)/C(=C\c3cc4c(cc3[N+](=O)[O-])OCO4)C2=O)cc1C
- AC50 [1]: 3.65 µM (active)
- IC50 [2]: 3.98 µM (active)
- CC50 [3]: > 40 µM (active)
- IC50 [4]: 23 µM (active)
- IC50 [5]: 27 µM (active)
- IC50 [6]: 3.3 µM (active)
- IC50 [7]: 4.66 µM (active)
- AC50 [8]: 321 nM (active)

Structure (SMILES): CC(/C=C/C1(O)C(C)CC(=O)CC1(C)C)OC1OC(CO)C(O)C(O)C1O (centres undefined)
- IC50 [9]: > 100 µM (inactive)
- IC50 [10]: 9.13 µM (active)
- IC50 [11]: > 100 µM (inactive)

Structure (SMILES): CN(C)CCCN(C(=O)c1ccc(S(=O)(=O)N2CCc3ccccc3C2)cc1)c1nc2c(F)cccc2s1
- EC50 [12]: > 100 µM (inactive)

Structure (SMILES): O=C(CCCn1c(=S)[nH]c2ccc(Br)cc2c1=O)N1CCN(c2ccccn2)CC1
- AC50 [13]: 15.8 µM (inconclusive)
- IC50 [14]: 19.6 µM (active)
- IC50 [15]: > 20 µM (inactive)
- IC50 [16]: > 20 µM (inactive)
- CC50 [17]: 23.6 µM (active)

Structure (SMILES): CSc1ccc(C2C(C(=O)c3ccco3)=C(O)C(=O)N2c2nnc(SC)s2)cc1 (centres undefined)
- EC50 [18]: > 99 µM (inactive)
- EC50 [19]: 0.279 µM (active)
- IC50 [20]: 4.87 µM (active)
- EC50 [21]: > 99 µM (inactive)
- EC50 [22]: 16.4 µM (active)
- EC50 [23]: 6.79 µM (active)

Structure (SMILES): Cn1nc(-c2ccccc2)c(C(=O)Nc2ccc(C(F)(F)F)cc2)c1Cl
- EC50 [19]: > 71.5 µM (inactive)
- EC50 [24]: > 79.4 µM (not active)
- EC50 [25]: > 79.4 µM (not active)
- EC50 [26]: > 79.4 µM (not active)

Structure (SMILES): CC(C)C(=O)N1CCN(c2ccc(NC(=O)COc3ccccc3[N+](=O)[O-])cc2)CC1
- AC50 [27]: 20 µM (active)
- EC50 [28]: > 350 µM (not active)
- AC50 [29]: 41.7 µM (active)
- AC50 [30]: 31.2 µM (active)
- EC50 [12]: > 100 µM (inactive)
- AC50 [31]: > 52 µM (inactive)
- EC50 [32]: > 350 µM (not active)
- IC50 [33]: > 79 µM (inactive)

Structure (SMILES): O=C1CC(c2ccc(O)c(O)c2)Oc2c1ccc(O)c2O (centres undefined)
- IC50 [4]: 1.91 µM (active)
- IC50 [9]: 24.8 µM (active)
- IC50 [10]: 14.8 µM (active)
- IC50 [11]: > 100 µM (inactive)
- IC50 [7]: 2.99 µM (active)

Structure (SMILES): Cc1ccc(NS(=O)(=O)c2cc(C(=O)N(C)C)ccc2C)cc1C
- IC50 [34]: > 100 µM (inactive)
- IC50 [35]: > 100 µM (not active)

Structure (SMILES): CCC(C)NC(=O)C(=O)NC1CCCC1 (centres undefined)
- IC50 [34]: > 100 µM (inactive)
- IC50 [35]: > 100 µM (not active)
